Data: article PMC5748644, “Synthesis and In Vitro Cytotoxicity of the 4-(Halogenoanilino)-6-bromoquinazolines and Their 6-(4-Fluorophenyl) Substituted Derivatives as Potential Inhibitors of Epidermal Growth Factor Receptor Tyrosine Kinase” (Pharmaceuticals, 2017)

Biological target: T1, epidermal growth factor receptor tyrosine kinase (EGFR-TK) (Homo sapiens, UniProt P00533)
T1 construct: commercial purified EGFR (Sigma-Aldrich), called both purified Epidermal Growth Factor Receptor and purified recombinant EGFR tyrosine kinase
Assay: ELISA kinase assay, poly(Glu,Tyr) phosphorylation, anti-phosphotyrosine antibody, […] nm
Format: biochemical

T1 sequence (P00533 25-1210): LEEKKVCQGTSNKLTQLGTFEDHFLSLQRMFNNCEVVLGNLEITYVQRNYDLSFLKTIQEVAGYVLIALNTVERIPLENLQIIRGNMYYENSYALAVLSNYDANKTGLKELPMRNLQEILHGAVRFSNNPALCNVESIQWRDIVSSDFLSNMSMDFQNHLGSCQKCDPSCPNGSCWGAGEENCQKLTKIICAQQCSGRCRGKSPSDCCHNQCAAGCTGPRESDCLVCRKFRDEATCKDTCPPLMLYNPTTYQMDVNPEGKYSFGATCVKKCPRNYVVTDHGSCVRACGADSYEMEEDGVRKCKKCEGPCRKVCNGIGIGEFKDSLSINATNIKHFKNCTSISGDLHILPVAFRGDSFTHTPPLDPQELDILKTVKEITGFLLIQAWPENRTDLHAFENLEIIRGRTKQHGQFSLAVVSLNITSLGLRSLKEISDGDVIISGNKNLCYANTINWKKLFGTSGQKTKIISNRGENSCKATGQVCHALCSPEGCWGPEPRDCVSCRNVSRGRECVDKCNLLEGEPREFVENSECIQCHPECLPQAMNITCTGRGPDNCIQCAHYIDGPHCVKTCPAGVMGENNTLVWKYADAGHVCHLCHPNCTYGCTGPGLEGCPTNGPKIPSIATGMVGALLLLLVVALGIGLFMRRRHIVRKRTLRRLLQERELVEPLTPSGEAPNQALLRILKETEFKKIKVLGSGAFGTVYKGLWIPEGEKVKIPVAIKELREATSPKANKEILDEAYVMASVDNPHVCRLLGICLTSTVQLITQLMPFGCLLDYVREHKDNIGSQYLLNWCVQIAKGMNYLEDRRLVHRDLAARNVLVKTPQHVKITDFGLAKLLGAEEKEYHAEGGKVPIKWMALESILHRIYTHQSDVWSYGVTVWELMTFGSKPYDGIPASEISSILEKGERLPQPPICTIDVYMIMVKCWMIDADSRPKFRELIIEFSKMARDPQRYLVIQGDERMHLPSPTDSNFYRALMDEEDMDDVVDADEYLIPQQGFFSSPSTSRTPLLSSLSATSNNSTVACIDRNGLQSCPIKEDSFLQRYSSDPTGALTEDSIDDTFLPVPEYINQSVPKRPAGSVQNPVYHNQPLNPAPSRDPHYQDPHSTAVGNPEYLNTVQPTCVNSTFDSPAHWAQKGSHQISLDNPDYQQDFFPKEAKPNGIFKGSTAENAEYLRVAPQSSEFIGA

IC50 [µM]	Structure (SMILES)
0.0701	Fc1ccccc1Nc1nc(-c2ccc(Cl)cc2)nc2ccc(Br)cc12 [3g, 6-Bromo-2-(4-chlorophenyl)-N-(2-fluorophenyl)quinazolin-4-amine]
0.0377	Fc1ccc(Nc2nc(-c3ccc(Cl)cc3)nc3ccc(Br)cc23)c(F)c1 [3l, 6-Bromo-2-(4-chlorophenyl)-N-(2,4-difluorophenyl)quinazolin-4-amine]
0.0592	Fc1ccc(-c2ccc3nc(-c4ccc(Cl)cc4)nc(Nc4ccc(F)cc4F)c3c2)cc1 [4l, [2-(4-Chlorophenyl)-6-(4-fluorophenyl)quinazolin-4-yl]-2,4-difluorophenylamine]
